# From ChEMBL document CHEMBL3875210, “Synthesis, functionalization and biological activity of arylated derivatives of (+)-estrone” (Bioorg Med Chem, 2017)
# System: pancreatic lipase (Sus scrofa)
# Assay: Inhibition of pancreatic lipase (unknown origin) at 100 uM using p-nitrophenylbutyrate as substrate preincubated for 10 mins followed by substrate addition measured after 20 mins
# Conditions: not given
row,Structure (SMILES),inhibition [%]
1,COc1ccc(-c2cc3c(c(-c4ccc(OC)c(OC)c4OC)c2O)CC[C@@H]2[C@@H]3CC[C@]3(C)C(=O)CC[C@@H]23)c(OC)c1OC,37
2,CCc1ccc(-c2cc3c(c(-c4ccc(CC)cc4)c2O)CC[C@@H]2[C@@H]3CC[C@]3(C)C(=O)CC[C@@H]23)cc1,41
3,Cc1ccc(-c2c(O)ccc3c2CC[C@@H]2[C@@H]3CC[C@]3(C)C(=O)CC[C@@H]23)cc1,38
4,Cc1ccc(-c2cc3c(c(-c4ccc(C)cc4)c2O)CC[C@@H]2[C@@H]3CC[C@]3(C)C(=O)CC[C@@H]23)cc1,39
5,C[C@]12CC[C@@H]3c4cc(-c5ccccc5)c(O)cc4CC[C@H]3[C@@H]1CCC2=O,39
6,C[C@]12CC[C@@H]3c4ccc(O)c(-c5ccc(Cl)cc5)c4CC[C@H]3[C@@H]1CCC2=O,45
7,C[C@]12CC[C@@H]3c4ccc5oc6ccccc6c5c4CC[C@H]3[C@@H]1CCC2=O,32
8,C[C@]12CC[C@@H]3c4cc(-c5ccccc5F)c(O)c(-c5ccccc5F)c4CC[C@H]3[C@@H]1CCC2=O,43
9,COc1ccc(-c2c(O)ccc3c2CC[C@@H]2[C@@H]3CC[C@]3(C)C(=O)CC[C@@H]23)c(OC)c1OC,43
10,C[C@]12CC[C@@H]3c4cc(-c5ccc(C(F)(F)F)cc5)c(O)c(-c5ccc(C(F)(F)F)cc5)c4CC[C@H]3[C@@H]1CCC2=O,42
11,COc1ccc(-c2c(O)ccc3c2CC[C@@H]2[C@@H]3CC[C@]3(C)C(=O)CC[C@@H]23)cc1,42

# Target: not listed separately
# Assay: Inhibition of pancreatic lipase (unknown origin) assessed as decrease in release of fatty acid from triolein incubated for 30 mins by phenolphthalein-baed titrimetric method
# Parameters: species or system Homo sapiens
# Conditions: not given
row,Structure (SMILES),IC50 [µg/mL]
1,CC(C)c1cc2c(c(O)c1O)[C@@]1(C(=O)O)CCCC(C)(C)[C@@H]1CC2 [CARNOSIC ACID],12

# Same assay, conditions: read-out: IC50
row,Structure (SMILES),IC50 [µM]
1,C[C@H]1[C@H](C)CC[C@]2(C(=O)O)CC[C@]3(C)C(=CC[C@@H]4[C@@]5(C)CC[C@H](O)C(C)(C)[C@@H]5CC[C@]43C)[C@H]12 [URSOLIC ACID],15.8
2,Oc1cc(O)c2c(c1)O[C@H](c1ccc(O)c(O)c1)[C@H](O)C2 [(-)-EPICATECHIN],> 20
3,Cc1cc2c(c(O)c1-c1c(C)cc3c(c1O)C(=O)c1c(O)cc(O)cc1C3=O)C(=O)c1c(O)cccc1C2=O [CASSIAMIN A],41.8

# Target: Pancreatic triacylglycerol lipase (Sus scrofa) (UniProt P00591)
# Assay: Inhibition of porcine pancreatic lipase using p-nitrophenylbutyrate as substrate preincubated for 10 mins followed by substrate addition measured after 20 mins
# Conditions: not given
row,Structure (SMILES),IC50 [µM]
1,CCc1ccc(-c2c(O)ccc3c2CC[C@@H]2[C@@H]3CC[C@]3(C)C(=O)CC[C@@H]23)cc1,13.6
2,COc1cc(OC)cc(-c2cc3c(cc2O)CC[C@@H]2[C@@H]3CC[C@]3(C)C(=O)CC[C@@H]23)c1,16.4
3,C[C@]12CC[C@@H]3c4cc(-c5cccc(F)c5)c(O)c(-c5cccc(F)c5)c4CC[C@H]3[C@@H]1CCC2=O,7.19
4,C[C@]12CC[C@@H]3c4cc(-c5ccccc5F)c5oc6ccccc6c5c4CC[C@H]3[C@@H]1CCC2=O,0.93
5,CC(C)(C)c1ccc(-c2cc3c(c(-c4ccc(C(C)(C)C)cc4)c2O)CC[C@@H]2[C@@H]3CC[C@]3(C)C(=O)CC[C@@H]23)cc1,8.29
6,C[C@]12CC[C@@H]3c4ccc(O)c(-c5ccccc5)c4CC[C@H]3[C@@H]1CCC2=O,1.54
7,Cc1cc(C)cc(-c2cc3c(c(-c4cc(C)cc(C)c4)c2O)CC[C@@H]2[C@@H]3CC[C@]3(C)C(=O)CC[C@@H]23)c1,24.1
8,Cc1ccc(-c2cc3c(cc2O)CC[C@@H]2[C@@H]3CC[C@]3(C)C(=O)CC[C@@H]23)cc1,1.21
9,C[C@]12CC[C@@H]3c4cc(-c5ccc(C(F)(F)F)cc5)c(O)cc4CC[C@H]3[C@@H]1CCC2=O,16.3
10,C[C@]12CC[C@@H]3c4cc(-c5ccccc5)c(O)c(-c5ccccc5)c4CC[C@H]3[C@@H]1CCC2=O,25.6
11,CC(C)(C)c1ccc(-c2cc3c(cc2O)CC[C@@H]2[C@@H]3CC[C@]3(C)C(=O)CC[C@@H]23)cc1,5.66
12,COc1ccc(-c2cc3c(cc2O)CC[C@@H]2[C@@H]3CC[C@]3(C)C(=O)CC[C@@H]23)cc1,12.3
13,C[C@]12CC[C@@H]3c4ccc(O)c(-c5ccc(OC(F)(F)F)cc5)c4CC[C@H]3[C@@H]1CCC2=O,6.42
14,C[C@]12CC[C@@H]3c4cc(-c5ccc(OC(F)(F)F)cc5)c(O)cc4CC[C@H]3[C@@H]1CCC2=O,2.54
15,C[C@]12CC[C@@H]3c4cc(-c5ccc(OC(F)(F)F)cc5)c(O)c(-c5ccc(OC(F)(F)F)cc5)c4CC[C@H]3[C@@H]1CCC2=O,1.21
16,C[C@]12CC[C@@H]3c4ccc(O)c(-c5cccc(F)c5)c4CC[C@H]3[C@@H]1CCC2=O,1.34
17,C[C@]12CC[C@@H]3c4ccc(O)c(-c5ccc(C(F)(F)F)cc5)c4CC[C@H]3[C@@H]1CCC2=O,0.82
18,C[C@]12CC[C@@H]3c4ccc5oc(=O)c6ccccc6c5c4CC[C@H]3[C@@H]1CCC2=O,1.36
19,C[C@]12CC[C@@H]3c4cc(-c5ccc(Cl)cc5)c(O)c(-c5ccc(Cl)cc5)c4CC[C@H]3[C@@H]1CCC2=O,1.75
20,COc1ccc(-c2cc3c(c(-c4ccc(OC)cc4)c2O)CC[C@@H]2[C@@H]3CC[C@]3(C)C(=O)CC[C@@H]23)cc1,5.28
21,CC(C)(C)c1ccc(-c2c(O)ccc3c2CC[C@@H]2[C@@H]3CC[C@]3(C)C(=O)CC[C@@H]23)cc1,1.78
22,C[C@]12CC[C@@H]3c4cc(-c5ccc(F)cc5)c(O)c(-c5ccc(F)cc5)c4CC[C@H]3[C@@H]1CCC2=O,0.82
23,COc1cc(OC)cc(-c2c(O)ccc3c2CC[C@@H]2[C@@H]3CC[C@]3(C)C(=O)CC[C@@H]23)c1,59.7
24,C[C@]12CC[C@@H]3c4cc(-c5cccc(F)c5)c(O)cc4CC[C@H]3[C@@H]1CCC2=O,16.3
